# Tests used:
# [1] = Saturation concentrations of drugs in buffered solvent, HPLC of supernatant (Example 4); type: physicochemical; settings: McIlvaine buffer pH 6.0; compound pre-dissolved in propylene glycol
# Experimental: 250 μl “McIlvaine 0.1%” were mixed with 50 μl dexpanthenol stock solution, brought to 900 μl with distilled water, and combined and vigorously mixed with 100 μl experimental compound pre-dissolved resp. pre-suspended in propylene glycol. Alternative solutions with compound pre-dilutions/pre-suspensions in DMSO were prepared. Samples were centrifuged for 10 min at 15800 rcf. Aliquots of the clear supernatants were transferred into autosampler glass vials and the content of the dissolved experimental compounds was analyzed by HPLC using isocratic elution with 70% or 80% acetonitrile 0.01% TFA/[…] or 30% water 0.01% TFA at 1 ml/min and 50° C. for 10 min on an Agilent Zorbax Eclipse Plus C18 column (3.5 μm, 4.6×150 mm) and UV absorbance detection at the wavelengths appropriate for the respective experimental compound.
# [2] = Solubility of fluticasone propionate in 0.25x McIlvaine buffer (Examples 10, 11); type: physicochemical
# Experimental: 0% Propylene glycol • B . . . 5% Propylene glycol • C . . . 10% Propylene glycol • * . . . w/v % Escin • # . . . v/v % Dexpanthenol • y-axis . . . concentration of dissolved fluticasone propionate
# FIG. 7 represents the impact of dexpanthenol and saponin concentration on the dissolution of fluticasone propionate in 0.25× McIlvaine buffer containing 5% propylene glycol (maximum concentration achieved=5 μg/ml). […] The presence of 5% dexpanthenol seems to deliver solubility boosting effects. • A . . . 0% Dexpanthenol • B . . . 5% Dexpanthenol • y-axis . . . concentration of dissolved fluticasone propionate • x-axis . . . % Glycyrrhizin
# [3] = Fluticasone propionate solubility in the presence of hyaluronic acid (Examples 3, 14); type: physicochemical; settings: 5% propylene glycol, 7.5 g/l hyaluronic acid; one month storage at ambient temperature
# Experimental: Samples of series A (0% dexpanthenol): 2.5 ml solution containing the respective escin concentration (McIlvaine 0.01%, 0.02%, 0.03% or McIlvaine buffer) were mixed with 3.6 ml hyaluronic acid stock solution and 0.5 ml Fluticasone propionate pre-solution and filled up to 10 ml with distilled water. Samples of series B (2% dexpanthenol): 2.5 ml solution containing the respective escin concentration (McIlvaine 0.01%, 0.02%, 0.03% or McIlvaine buffer) were mixed with 0.2 ml dexpanthenol, 3.6 ml Hyaluronic acid stock solution and 0.5 ml fluticasone propionate pre-solution and filled up to 10 ml with distilled water. […]
# After 1 month storage at room temperature, samples were taken and centrifuged for 11 min at 15700 rcf. The clear supernatant was filled into glass vials and the concentration of dissolved FP (maximal 5 μg/ml) was measured in duplicates by HPLC.
# Fluticasone propionate in the presence of hyaluronic acid was analyzed by RP-HPLC (UV absorbance detection at 235 nm) using a gradient from 5% acetonitrile to 90% acetonitrile in water containing 0.01% TFA (see detailed gradient description below).
# Solvent A: water HPLC gradient grade 0.01% trifluoroacetic acid. […] From the fluticasone propionate containing samples 40 μl each were injected and analyzed. […]
# [4] = system: porcine nasal mucosa; assay: Ex vivo penetration of fluticasone propionate into porcine nasal mucosa; type: in vitro ADME; settings: 5 μg/ml; 0.03% escin, 3% propylene glycol, 5% dexpanthenol vs suspension without saponin; 15-60 min
# Experimental: In order to test for the bioavailability of compositions prepared in accordance with the present invention, experiments were conducted ex vivo wherein an experimental composition comprising fluticasone propionate as a compound of interest was compared to a composition comprising the same compound at the same concentration but without a saponin as a solubilization enhancer.
# FIG. 14 represents the concentrations of fluticasone propionate penetrated ex-vivo into porcine nasal mucosa at different time points. The experimental composition comprised 5 μg/ml fluticasone propionate dissolved in aqueous buffer comprising 0.03% escin, 3% propylene glycol and 5% dexpanthenol. The comparative specimen was a suspension comprising the same aqueous buffer and no saponin nor dexpanthenol. Both formulations were added ex-vivo onto surgically extracted porcine nasal mucosa. After 15, 30, 45 and 60 minutes of incubation the mucosa was washed and the amount of permeated fluticasone propionate was determined by HPLC-MS/MS. • A—experimental composition; • B—comparative fluticasone propionate suspension; • x-axis=incubation time in minutes; • y-axis=ng fluticasone propionate/g tissue.
# [5] = U.S. Pat. No. 4,868,170; cited from earlier work
SMILES,Saturation concentration in 10% propylene glycol or DMSO without escin or dexpanthenol [1] [µg/mL],"Saturation concentration in 10% propylene glycol or DMSO, 0.1% escin and 5% dexpanthenol [1] [µg/mL]","best achieved concentration without saponin relative to maximum concentration with at least 0.03% escin ([2]; 0.25x McIlvaine buffer pH 6, propylene glycol 0-10%, dexpanthenol 0-5%)","maximum concentration achieved ([2]; 0.25x McIlvaine buffer, 5% propylene glycol, glycyrrhizin, dexpanthenol 0% or 5%) [µg/mL]",effect of dexpanthenol on fluticasone propionate solubility in the presence of escin [3],"concentration of drug permeated into mucosal tissue, experimental composition versus comparative suspension [4]",aqueous solubility [5]
CCC(=O)O[C@]1(C(=O)SCF)[C@H](C)C[C@H]2[C@@H]3C[C@H](F)C4=CC(=O)C=C[C@]4(C)[C@@]3(F)[C@@H](O)C[C@@]21C [Fluticasone propionate],0.68,5,about 50%,5,synergistically boost the solubility enhancing activity of escin,around five times higher,–
CCS[C@]1(SC)CC[C@H]2[C@@H]3CCC4=CC(=O)C=C[C@]4(C)[C@@]3(F)[C@@H](O)C[C@@]21C [tipredane],–,–,–,–,–,–,less than 0.2 mg/l

# Reference: US11510859B2, “Method for improving aqueous solubility of water-insoluble or slightly water-soluble drugs” (MARINOMED BIOTECH AG, priority 2015, dated 2022)
